Test results taken from paper PMC12461331, “Screening of Medicines for Malaria Venture Open Boxes Identifies Potent SARS-CoV‑2 Papain-like Protease (PL^pro) Inhibitors” (ACS Omega, 2025).
Converted amounts (≈) assume the structure as drawn. “And” between values parts separate entries of the source, which are not always exact repeats. Equal entries are not always repeated. Where two headings read alike, the source gives them in different places.

Experiments:
HeLa-ACE2 cells [1] = experiment: cells; conditions: Homo sapiens
Plasma stability = conditions: female, BALB/c, mouse, plasma, pH 7.4
in vitro [2] = conditions: human, microsomes, pH 7.4
SARS-CoV-2 [3] = conditions: for Data Mode: Hela-ACE2 % Positive SARS-CoV-2; for S0 / Sinf / nHill: Hela-ACE2 % Positive SARS-CoV-2, curve fit
physchem [4] = conditions: pH 7.4
in vitro [5] = conditions: human, uninfected HeLa-ACE2 cells
in vitro [6] = conditions: CD1, mouse, microsomes, pH 7.4
[7] = tested on: uninfected HeLa-ACE2 cells; conditions: Hela-ACE2 Uninfected Cell Toxicity; for qAC50: relation in column qAC50 Mode, unit not given; for S0 / Sinf / nHill: curve fit
[8] = Human liver microsomal stability assay; conditions: human, liver microsomes, pH 7.4
[9] = Mouse liver microsomal stability assay; conditions: CD1, mouse, liver microsomes, pH 7.4
HeLa-ACE2 cells [10] = tested on: HeLa-ACE2 cells
SARS-CoV-2 [11] = experiment: microbe, parasite or virus in culture; conditions: for AC50: Severe acute respiratory syndrome coronavirus 2, HeLa-ACE2, read-out: Log AC50 (converted); for inhibition at 9.61 µM: Severe acute respiratory syndrome coronavirus 2, HeLa-ACE2, read-out: inhibition in the highest concentration tested
[12] = female, BALB/c, mouse, 1 h, 2 μM, pH 7.4
PL^pro = PL^pro (Severe acute respiratory syndrome coronavirus 2, UniProt P0DTD1); conditions: 20 μM compound, 5 μM enzyme, average of triplicates with SD
in vitro [13] = conditions: PAMPA
physchem [14] = conditions: 25 °C, kinetic from dmso stock
[15] = HeLa-ACE2, read-out: HeLa-ACE2 Total cells EC50
[16] = uninfected HeLa-ACE2 CC50, supplement summary
[17] = uninfected HeLa-ACE2 CC50, uninfected HeLa-ACE2 cells, average of triplicates
[18] = Hela-ACE2 CoV-2 Total Cell count
[19] = Severe acute respiratory syndrome coronavirus 2, HeLa-ACE2, read-out: SARS-CoV-2 EC50, HeLa-ACE2 cells, average of triplicates
[20] = Severe acute respiratory syndrome coronavirus 2, HeLa-ACE2, read-out: qAC50, Hela-ACE2 % Positive SARS-CoV-2, relation in column qAC50 Mode, unit inferred
[21] = Hela-ACE2 CoV-2 Total Cell count, curve fit
[22] = Severe acute respiratory syndrome coronavirus 2, HeLa-ACE2, read-out: CoV-2 EC50
[23] = Severe acute respiratory syndrome coronavirus 2, HeLa-ACE2, read-out: SARS-CoV-2 EC50
[24] = Severe acute respiratory syndrome coronavirus 2, HeLa-ACE2, read-out: qAC50

| SMILES | EC50 (HeLa-ACE2 cells [1]; [15]) [µM] | EC50 (HeLa-ACE2 cells [1]; HeLa-ACE2, read-out: qAC50) [µM] | half-life at 2 μM (Plasma stability) [h] | microsomal CLint at 0.5 μM (in vitro [2]) [µL/min/mg] | Data Mode (SARS-CoV-2 [3]) | chromatographic logD (physchem [4]) | CC50 at 24 h (in vitro [5]; [16]) [µM] | CC50 at 24 h (in vitro [5]; [17]) [µM] | microsomal CLint at 0.5 μM (in vitro [6]) [µL/min/mg] | Data Mode [7] | qAC50 [7] | half-life at 0.5 μM [8] [min] | half-life at 0.5 μM [9] [min] | Data Mode (HeLa-ACE2 cells [10]; [18]) | plasma stability remaining 60 min [12] [%] | ΔT m (PL^pro) | Papp at 5 h, 10 μM (in vitro [13]) [×10⁻⁶ cm/s] | solubility kinetic at 24 h (physchem [14]; pH 2, aqueous buffer) [µg/mL] | solubility kinetic at 24 h (physchem [14]; pH 7.4, aqueous buffer) [µg/mL] | CoV2 Efficacy (delta S0:Sinf) (SARS-CoV-2 [3]; HeLa-ACE2) | further results |
| --- | --- | --- | --- | --- | --- | --- | --- | --- | --- | --- | --- | --- | --- | --- | --- | --- | --- | --- | --- | --- | --- |
| C[C@@H](c1cccc2ccccc12)N1CCC(C(=O)NCC2CCCCC2)CC1 (racemic) [Compound 11] | > 9.61 | > 9.61 | 5.25 | 209 | inactive | 4.8 | > 39.8 | > 39.8 | 354 | inactive | > 3.984e-5 | 13.2 | 7.84 | inactive | 47.10 | 0.90 ± 0.07 °C | 0.35 | > 23.1 | 6.15 (≈ 16.2 µM) |  | EC50 (SARS-CoV-2 [11]; [19]): > 9.61 µM; EC50 (SARS-CoV-2 [11]; [20]): > 9.61 µM |
| Cc1ccc(CNC(=O)C2CCN([C@@H](C)c3cccc4ccccc34)CC2)cc1 (stereo in doubt) [Compound 5] | > 9.61 | > 9.61 | 3.98 | 152 | decreasing (weakly active) | 4.55 | > 39.8 | > 39.8 | 292 | inactive | > 3.984e-5 | 18.2 | 9.48 | inactive | 33.79 | 5.57 °C and 5.57 ± 0.09 °C | 0.67 | > 25 | 8.62 (≈ 22.3 µM) | 105.451 | S0 (SARS-CoV-2 [3]): 5.451; Sinf (SARS-CoV-2 [3]): -100; nHill (SARS-CoV-2 [3]): 2.548; AC50 (SARS-CoV-2 [11]): > 9.61 µM; EC50 (SARS-CoV-2 [11]; [19]): > 9.61 µM; EC50 (SARS-CoV-2 [11]; [20]): > 9.61 µM |
| Cc1ccc(CNC(=O)C2CCN([C@H](C)c3cccc4ccccc34)CC2)cc1 [Compound 4] | > 9.61 | > 9.61 | 6.42 | 78.4 | decreasing (weakly active) | 4.56 | > 39.8 | > 39.8 | 214 | inactive | > 3.984e-5 | 35.4 | 13 | inactive | 58.47 | 7.98 °C and 7.9 ± 0.6 °C | 0.78 | > 24.2 | 8.09 (≈ 20.9 µM) | 103.282 | S0 (SARS-CoV-2 [3]): 3.282; Sinf (SARS-CoV-2 [3]): -100; nHill (SARS-CoV-2 [3]): 1.703; AC50 (SARS-CoV-2 [11]): > 9.61 µM; EC50 (SARS-CoV-2 [11]; [19]): > 9.61 µM; EC50 (SARS-CoV-2 [11]; [20]): > 9.61 µM |
| CC(c1cccc2ccccc12)N1CCC(C(=O)NCc2ccc(Cl)cc2)CC1 (centres unmarked) [Compound 13] | > 9.61 | > 9.61 | 6.08 | 184 | decreasing | 4.7 | 18.9 | 18.8 ± 0.2 | 302 | decreasing | 1.885e-5 | 15.1 | 9.19 | increasing (weakly active) | 46.83 | 6.15 °C and 6.1 ± 0.4 °C | 0.3 | > 24.4 | > 13.4 | 104.884 | AC50 (HeLa-ACE2 cells [1]; HeLa-ACE2, read-out: Log AC50 (converted)): > 9.61 µM; SI (average CC50/average EC50) (SARS-CoV-2 [3]; HeLa-ACE2): 5; S0 (SARS-CoV-2 [3]): 4.884; Sinf (SARS-CoV-2 [3]): -100; nHill (SARS-CoV-2 [3]): 3.857; SI (average CC50/average EC50) (SARS-CoV-2 [3]; supplement summary): 5.083; Tags (tier) (SARS-CoV-2 [3]; tier of the screening summary): 3 (EC50< 10 µM, Efficacy >40%, SI > 5 or CC50 not reached at maximum concentration tested); AC50 at 24 h (in vitro [5]): 18.9 µM; S0 [7]: -6.029; Sinf [7]: -100; nHill [7]: 4; S0 (HeLa-ACE2 cells [10]; [21]): -15.6144; Sinf (HeLa-ACE2 cells [10]; [21]): 100; nHill (HeLa-ACE2 cells [10]; [21]): 0.852; HeLa-ACE2 Total Cell Efficacy (Sinf, note + or -) (HeLa-ACE2 cells [10]; infected HeLa-ACE2 total cell count): 0.852; EC50 (SARS-CoV-2 [11]; [22]): 3.71 µM; AC50 (SARS-CoV-2 [11]): 3.71 µM; EC50 (SARS-CoV-2 [11]; [23]): 3.7 ± 0.5 µM; inhibition at 9.61 µM (SARS-CoV-2 [11]): > 50%; EC50 (SARS-CoV-2 [11]; [24]): 3.71 µM |
| COc1ccc(CNC(=O)[C@@H]2CCN([C@@H](C)c3cccc4ccccc34)C2)cc1 [Compound 15] |  |  | 19.3 | 173 |  | 4.24 |  |  | 742 |  |  | 16.1 | 3.74 |  | 79.94 | 0.40 ± 0.06 °C | 0.46 | > 23.9 | > 19.1 |  |  |
| C[C@H](c1cccc2ccccc12)N1CCC(C(=O)NCc2ccc(Cl)cc2)CC1 [Compound 12] | > 9.61 | > 9.61 | 38.5 | 97.2 | decreasing | 4.7 | 14.5 | 14.4 ± 0.2 | 226 | decreasing | 1.447e-5 | 28.5 | 12.3 | inactive | 89.75 | 6.6 °C and 6.6 ± 0.2 °C | 0.25 | > 24.1 | 10.2 (≈ 25.1 µM) | 104.049 | SI (average CC50/average EC50) (SARS-CoV-2 [3]; HeLa-ACE2): 4.8; S0 (SARS-CoV-2 [3]): 4.049; Sinf (SARS-CoV-2 [3]): -100; nHill (SARS-CoV-2 [3]): 4; SI (average CC50/average EC50) (SARS-CoV-2 [3]; supplement summary): 4.873; AC50 at 24 h (in vitro [5]): 14.5 µM; S0 [7]: 0.4208; Sinf [7]: -100; nHill [7]: 3.064; EC50 (SARS-CoV-2 [11]; [22]): 2.97 µM; AC50 (SARS-CoV-2 [11]): 2.97 µM; EC50 (SARS-CoV-2 [11]; [23]): 2.9 ± 0.2 µM; inhibition at 9.61 µM (SARS-CoV-2 [11]): > 50%; EC50 (SARS-CoV-2 [11]; [24]): 2.97 µM |
